# Patent US20250034139A1, “AMINE COMPOUNDS HAVING ANTI-INFLAMMATORY, ANTIFUNGAL, ANTIPARASITIC, AND ANTICANCER ACTIVITY” (PHARMA CINQ, LLC, priority 2013, published 2025)
# Columns and labels:
# THP-1 cells = assay: Example D: LPS-triggered THP-1 cell death assay, acute/5-hour and chronic/48-hour; format: cell-based, Human; settings: for Viable cell percent change, Chronic/48-hour, Mean: 10 ng/ml LPS, 0.1 μM test compound
# Method: Compounds of the invention were tested at 0.1 μM versus AC in the LPS-triggered THP-1 cell death assay. Both acute/5-hour and chronic/48-hour phases of cell death were assessed. Compounds were screened in batches with DMSO as the negative control and AC as the high activity control.
# S. cerevisiae = assay: Example I: Saccharomyces cerevisiae growth inhibition (OD 600 nm); format: cell-based; settings: Saccharomyces cerevisiae, 18 hour incubation at 30° C., OD 600 nm, XLfit; for IC50: read-out: IC50, uM (50% inhibition of fungal growth); for MIC: read-out: MIC, uM (99% of inhibition of fungal growth)
# Method: An overnight culture of S. cerevisiae was dilution in YPD broth to concentration of 40,000/ml and 150 μl/well was plated in 96 well plates. Compounds were then added to each well with concentration ranged from 4 to 50 μM as final concentration. The plates were inoculated at 30° C. overnight with shaking at 220 rpm and absorbance at 600 nm was read after 18 hour incubation.
# • 1. One days prior to the inoculum preparation, pick a single colony of S. cerevisiae from the Sabouraud Dextrose Agar plate using the inoculum loop and inoculate into a 50 mL tube containing 10 ml of YPD growth medium • 2. Incubate at 30° C. with shaking at 220 rpm for 24 hours with loosen lid to allow air in and facilitates growth. • 3. Examine an aliquot of the culture under a microscope for yeast cell morphology and lack of bacterial contamination. • 4. Dilute the overnight culture with YPD medium at 1:30 dilution (70 ul to 2.1 ml) and count the number of cells as 4,230,000/ml. • 5. Mix 620 μl of 1:30 dilution and 64.4 ml YPD to make final concentration of 40,000/ml cells • 6. Plated 144 μl/well in four 96-well plates.
# • 1. From 10 mM DMSO stock solutions, make serial dilutions of compounds to 0.1, 0.2, 0.3, 0.63 and 1.25 mM solutions • 2. Add 6 μl each of diluted compound solutions per well in duplicates. The final concentrations were 0, 4, 8, 12, 25 and 50 micromolar. • 3. Incubated all plates at 30 C for overnight (˜18 hours) with 220 rpm shaking. • 4. Read absorbance at OD600 for each plate on Spectra Max Plus plate reader. • 5. Calculate the % inhibition of each compound against the DMSO treated cell and plotted.
# Trichophyton rubrum = assay: Example J: Trichophyton rubrum growth inhibition, scoring by eye; format: cell-based; settings: Trichophyton rubrum, 144 h; 6 days at 30° C., tested 6 to 40 μM; read-out: MIC, μM (maximum inhibition concentration, scoring by eye)
# Method: Trichophyton grown on two agar plates were collected by scraping into 10 ml saline and filtered through 8 μm filters. […] This experiment included some active compounds from previous experiment and added several untested compounds. […] Following table listed the maximum inhibition concentration (MIC) based on scoring by eye. Scrape frozen Trichophyton culture from ATCC vial and suspended in 100 μl PDB, and then plate on a PDA plate. Incubate plate at 30 C for 4 days. The plate was covered almost full. […] Take OD of collected solution at 520 nm and 600 nm: […] Part-II: […] Add 6 μl each of diluted compound solutions per well in triplicates. […] Wrap the plates with […] incubate all plates at 30° C. for 6 days. • Take picture of the plates on KODAK imager with 17 captures of 1.5 sec/capture for total of 25.5 second exposure.
# [1] = test system: 4T1 murine breast cancer cells; assay: Example S: in vitro anticancer screen, 4T1 cells, Wst1; format: cell-based, mouse; settings: Mus musculus, 4T1, 18 h, 18 hr, Wst1; for viability at 1 µM: read-out: 4T1 1 μM, percent of cancer cell survival relative to vehicle treated cells; for viability at 5 µM: read-out: 4T1 5 μM, percent of cancer cell survival relative to vehicle treated cells
# In short: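 Read-out is Wst1 absorbance (450 nm, reference 630 nm) after roughly 2 hr dye incubation, giving percent cell survival versus vehicle. Before that, compounds at 1 μM or 5 μM were applied for 18 hr to 4T1 cells plated at 1×10^4 per well.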
# [2] = test system: PC3 human prostate cancer cells; assay: Example S: in vitro anticancer screen, PC-3 cells, Wst1; format: cell-based; settings: Homo sapiens, PC-3, approximately 20 hours, Wst1, read-out: PC-3, percent of cancer cell survival relative to vehicle treated cells
# In short: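 Values give percent survival relative to vehicle, read by Wst1 absorbance (450/630 nm) after 2 h dye incubation, in triplicate. Cells were seeded at 2×10^4/well and treated about 20 h with compound at 0.4, 0.5 or 2.5 μM, depending on compound.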
# [3] = test system: PC-3 prostate cancer cells; assay: Example T: sensitisation of PC-3 cells to doxorubicin, oxaliplatin, paclitaxel or vincristine, Wst1; format: cell-based, human; settings: PC-3 cells, 72 hours; for viability at 0.4 µM: compound 0.4 μM alone; for Doxorubicin 3.5 μM: percent cell survival / Oxaliplatin 100 μM: percent cell survival / Paclitaxel 50 μM: percent cell survival / Vincristine 100 nM: percent cell survival: chemotherapy agent alone normalized to 100%
# [4] = test system: Candida albicans strain 3153; assay: Example H: Candida albicans growth inhibition (OD 600 nm); format: cell-based; settings: for MIC: Candida albicans, 3153, 24 hrs at 30° C., YPD, XLfit, read-out: MIC (uM) (99% of inhibition of fungal growth); for IC50: Candida albicans, 3153, read-out: IC50 (uM) (50% inhibition of fungal growth), 24 hrs at 30° C., YPD, XLfit
# Method: A single colony of Candida Albicans was grown in 50 ml YPD broth overnight (19 hr). The cells were washed with PBS and 3.5×10^4 CFU/ml of C. Albicans (144 μl/well) in YPD medium were plated in 96 well plates. Test compounds were then added to each well with concentration ranged from 5 to 40 μM as final concentrations. The plates were incubated at 30° C. overnight (24 hrs) and OD at 600 nm was read at the end of incubation as an index of yeast cell density.
# Part-I: Preparation of Candida albicans Cells • 1. One day prior to the inoculum preparation, pick a single colony of Candida albicans strain 3153 (lot #61794) from the Sabouraud Dextrose Agar plate using the inoculum loop and inoculate into a 250 mL flask containing 50 ml of YPD growth medium • 2. Incubate at 30° C. with shaking at 150 rpm for at least 18 hours with loosened lid to allow air in and facilitate growth. • 3. Examine an aliquot of the culture under a microscope for Candida cell morphology and lack of bacterial contamination; >95% of Candida cells should be blastoconidia. • 4. Transfer 25 ml the overnight culture into a 50-ml plastic disposable centrifuge tube, and centrifuge at 1000×g for 20 min. • 5. Discard the supernatant and wash the pellet with 4 ml of PBS at three times. Vortex and centrifuge, 1000×g for 10 min. • 6. After the third wash, dispense the pellet with 2 ml PBS and vortex. • 7. Make three 1:10 serial dilutions in sterile PBS (10^−1, 10^−2, 10^−3) from the 2 ml cell suspension using 15 ml culture tubes. The final volume in each tube is 5 ml. • 8. […] Make a 1:4 dilution in YPD medium from the 50-fold dilution of 10^−3 cell suspension for testing compounds. • The final C. albicans cell concentration for the test: 3.5×10^4 CFU/ml • 10. Plated 144 ul/well of the above dilution of cell on 96-well plates. Part-II: C. Albicans Growth Inhibition Testing with Compounds • 1. From 10 mM DMSO stock solutions, make serial dilutions of compounds to 0.13, 0.25, 0.40, 0.55, 0.75 and 1.0 mM solutions • 2. Add 6 ul each of diluted compound solutions per well in duplicates. The final concentrations were 0, 5, 10, 16, 22, 30 and 40 micromolar. • 3. Incubated all plates at 30 C for overnight (˜24 hours). • 4. Read absorbance at OD600 for each plate. • 5. Calculate the % inhibition of each compound against the DMSO treated cell.
# [5] = Homo sapiens, Wst1, vehicle = 100, read-out: No Chemo: percent cell survival
# [6] = compound 0.4 μM + doxorubicin 3.5 μM
# [7] = compound 0.4 μM + oxaliplatin 100 μM
# [8] = compound 0.4 μM + paclitaxel 50 μM
# [9] = compound 0.4 μM + vincristine 100 nM
Structure (SMILES),IC50 (S. cerevisiae),MIC (S. cerevisiae),MIC (Trichophyton rubrum),MIC [4],IC50 [4],"Viable cell percent change, Chronic/48-hour, Mean (THP-1 cells)",viability at 1 µM [1],viability at 5 µM [1],viability at 0.4 µM [2],"viability at 0.4 µM [3, 5]","Doxorubicin 3.5 μM: percent cell survival [3, 6]","Oxaliplatin 100 μM: percent cell survival [3, 7]","Paclitaxel 50 μM: percent cell survival [3, 8]","Vincristine 100 nM: percent cell survival [3, 9]",also measured
"c1ccc(OCCCCCCCCNc2ccnc3ccccc23)cc1 [AN, N-(8-Phenoxyoctyl)quinolin-4-amine]",19.1 µM,24.3 µM,18 µM,,,31.66%,26.6%,50.3%,75.9%,75.9%,28.2%,24.7%,45.8%,67.3%,"activity relative to AC in the LPS-triggered THP-1 cell death assay, in words (THP-1 cells; 0.1 μM, 5-hour and 48-hour time points): equivalent activity to AC at both the 5-hour and 48-hour time points"
"CCCCCCOC(=O)c1ccc(Nc2ccnc3ccccc23)cc1 [AP, Hexyl 4-(quinolin-4-ylamino)benzoate]",26.3 µM,46.5 µM,~40 µM,42 µM,25 µM,37.38%,110%,246%,,,,,,,
"CCCCCCNC(=O)c1ccc(Nc2ccnc3ccccc23)cc1 [AQ, N-Hexyl-4-(quinolin-4-ylamino)benzamide]",,,> 40 µM,,41.2 µM,24.71%,94.8%,92.7%,,,,,,,

# The next lines start with results.
IC50 (S. cerevisiae),MIC (S. cerevisiae),MIC (Trichophyton rubrum),MIC [4],IC50 [4],Structure (SMILES),"Viable cell percent change, Chronic/48-hour, Mean (THP-1 cells)",viability at 1 µM [1],viability at 5 µM [1],viability at 0.4 µM [2],"viability at 0.4 µM [3, 5]","Doxorubicin 3.5 μM: percent cell survival [3, 6]","Oxaliplatin 100 μM: percent cell survival [3, 7]","Paclitaxel 50 μM: percent cell survival [3, 8]","Vincristine 100 nM: percent cell survival [3, 9]",also measured
,,> 40 µM,84.9 µM,34.7 µM,"CCCCCCc1ccc(Nc2ccnc3ccccc23)cc1 [AO, N-(4-Hexylphenyl)quinolin-4-amine]",25.19%,28.9%,18.6%,35%,35%,80.7%,91%,93.1%,91.1%,
,,> 40 µM,44.8 µM,33.5 µM,"CCCCCCOc1ccc(Nc2ccnc3ccccc23)c(F)c1 [BL, N-[2-Fluoro-4-(hexyloxy)phenyl]quinolin-4-amine]",32.33%,,,106%,106%,135.5%,120%,141.4%,111.2%,
35.6 µM,50.8 µM,12 µM,90.6 µM,28.8 µM,"CCCCCCCCn1cnc2cnc3ccccc3c21 [BP, 1-Octyl-1H-imidazo[4,5-c]quinoline]",,33.6%,23.3%,,,,,,,"viability at 0.5 µM ([2]; 0.5 μM): 50.5%; viability at 0.5 µM ([3]; Homo sapiens, compound 0.5 μM alone, Wst1, vehicle = 100, read-out: No Chemo: percent cell survival): 50.5%; Doxorubicin 3.5 μM: percent cell survival ([3]; compound 0.5 μM + doxorubicin 3.5 μM): 79.1%; Oxaliplatin 100 μM: percent cell survival ([3]; compound 0.5 μM + oxaliplatin 100 μM): 113.6%; Paclitaxel 50 μM: percent cell survival ([3]; compound 0.5 μM + paclitaxel 50 μM): 95.1%; Vincristine 100 nM: percent cell survival ([3]; compound 0.5 μM + vincristine 100 nM): 93%"
